In the CheMixHub viscosity set:
Values joined by “and” are separate entries in the source; they are usually repeats but may differ in a detail not shown here. Equal values may be shown once. ± gives the uncertainty stated by the source.

C1CCCCC1
Settings | viscosity
293.15 K, 101 kPa | 0.972 ± 0.019 mPa·s
293.15 K, 101.3 kPa | 0.986 ± 0.007 mPa·s
298 K, 101 kPa | 0.99 ± 0.02 mPa·s
298 K, 101.3 kPa | 0.883 ± 0.009 mPa·s
298.15 K, 100 kPa | 0.8956 ± 0.11 mPa·s and 0.8961 ± 0.01 mPa·s
298.15 K, 101.3 kPa | 0.905 ± 0.007 mPa·s and 0.8862 ± 0.024 mPa·s
303 K, 101.33 kPa | 0.8141 ± 0.019 mPa·s
303.15 K, 100 kPa | 0.82 ± 0.07 mPa·s
303.15 K, 101.32 kPa | 0.826 ± 0.004 mPa·s
303.75 K, 101.33 kPa | 0.8403 ± 0.01 mPa·s
307.35 K, 101.33 kPa | 0.76 ± 0.011 mPa·s
307.4 K, 101.33 kPa | 0.309 ± 0.003 mPa·s
308 K, 101 kPa | 0.86 ± 0.02 mPa·s
308.15 K, 100 kPa | 0.7316 ± 0.088 mPa·s
308.15 K, 101.3 kPa | 0.7483 ± 0.021 mPa·s and 0.7592 ± 0.013 mPa·s
312.75 K, 101.33 kPa | 0.7277 ± 0.0086 mPa·s
313 K, 101.33 kPa | 0.7045 ± 0.017 mPa·s
313.15 K, 100 kPa | 0.7 ± 0.06 mPa·s
313.15 K, 101 kPa | 0.687 ± 0.014 mPa·s and 0.6934 ± 0.018 mPa·s
313.15 K, 101.3 kPa | 0.7003 ± 0.0064 mPa·s and 0.6886 ± 0.019 mPa·s
313.15 K, 101.33 kPa | 0.682 ± 0.018 mPa·s and 0.6995 ± 0.0069 mPa·s
318 K, 101.3 kPa | 0.6338 ± 0.024 mPa·s and 0.6445 ± 0.024 mPa·s
318 K, 101.33 kPa | 0.6338 ± 0.039 mPa·s
318.15 K, 101 kPa | 0.649 ± 0.007 mPa·s and 0.648 ± 0.014 mPa·s and 0.655 ± 0.007 mPa·s
321.15 K, 101.32 kPa | 0.5964 ± 0.011 mPa·s
322.15 K, 101.32 kPa | 0.5901 ± 0.011 mPa·s
323 K, 101 kPa | 0.6023 ± 0.0043 mPa·s and 0.6009 ± 0.0039 mPa·s
323 K, 101.33 kPa | 0.6126 ± 0.015 mPa·s
323.15 K, 100 kPa | 0.6074 ± 0.0069 mPa·s and 0.6 ± 0.05 mPa·s and 0.6077 ± 0.017 mPa·s
323.15 K, 101 kPa | 0.607 ± 0.012 mPa·s
323.15 K, 101.32 kPa | 0.5842 ± 0.011 mPa·s

CC(=O)OC(C)C(C)C (stereo unspecified)
101.33 kPa
Settings | viscosity [mPa·s]
298.15 K | 0.795 ± 0.021
303.15 K | 0.74 ± 0.019
308.15 K | 0.69 ± 0.018

CC(CC(C)(C)C)CP(=O)([O-])CC(C)CC(C)(C)C.CCCC[P+](C)(CCCC)CCCC (stereo unspecified)
Settings | viscosity [mPa·s]
323.15 K, 101 kPa | 283 ± 13

CCC(C)=O
Settings | viscosity
293.15 K, 100 kPa | 0.4 ± 0.04 mPa·s and 0.4152 ± 0.0064 mPa·s
298 K, 101.3 kPa | 0.475 ± 0.095 mPa·s
298 K, 101.33 kPa | 0.3774 ± 0.0053 mPa·s
298.15 K, 100 kPa | 0.3992 ± 0.0062 mPa·s
298.15 K, 101.3 kPa | 0.407 ± 0.011 mPa·s
298.15 K, 101.33 kPa | 0.384 ± 0.0043 mPa·s and 0.46 ± 0.005 mPa·s and 0.39 ± 0.0027 mPa·s
299.15 K, 101.3 kPa | 0.401 ± 0.011 mPa·s
303.15 K, 101.3 kPa | 0.364 ± 0.003 mPa·s
303.15 K, 101.33 kPa | 0.366 ± 0.01 mPa·s
307.35 K, 101.33 kPa | 0.35 ± 0.008 mPa·s
308.15 K, 100 kPa | 0.344 ± 0.014 mPa·s and 0.3666 ± 0.0059 mPa·s
308.15 K, 101.33 kPa | 0.342 ± 0.003 mPa·s and 0.422 ± 0.004 mPa·s
313.15 K, 101.3 kPa | 0.356 ± 0.0076 mPa·s
318 K, 101.3 kPa | 0.3429 ± 0.015 mPa·s
318 K, 101.33 kPa | 0.3417 ± 0.039 mPa·s
318.15 K, 101 kPa | 0.3194 ± 0.0052 mPa·s and 0.3213 ± 0.0087 mPa·s and 0.322 ± 0.009 mPa·s
318.15 K, 101.3 kPa | 0.343 ± 0.009 mPa·s
318.15 K, 101.33 kPa | 0.311 ± 0.003 mPa·s and 0.397 ± 0.004 mPa·s
323.15 K, 100 kPa | 0.31 ± 0.03 mPa·s and 0.304 ± 0.004 mPa·s
323.15 K, 101.3 kPa | 0.3327 ± 0.0071 mPa·s

CCCCCCCC(=O)OCC
100 kPa
Settings | viscosity [mPa·s]
293.15 K | 1.549 ± 0.048
303.15 K | 1.295 ± 0.04
313.15 K | 1.095 ± 0.034
323.15 K | 0.949 ± 0.03

CCCCCCOC(C)=O
101.33 kPa
Settings | viscosity [mPa·s]
293.15 K | 1.078 ± 0.021
303.15 K | 0.782 ± 0.018
313.15 K | 0.672 ± 0.017

CCCCOCC(C)O (stereo unspecified)
101.33 kPa
Settings | viscosity [mPa·s]
298.15 K | 2.855 ± 0.042
308.15 K | 2.142 ± 0.032
318.15 K | 1.655 ± 0.025

CCCC[N+]1(C)CCCC1.FC(F)(F)C(F)(F)[P-](F)(F)(F)(C(F)(F)C(F)(F)F)C(F)(F)C(F)(F)F
101 kPa
Settings | viscosity [mPa·s]
298.15 K | 283.4 ± 19
303.15 K | 214 ± 13
308.15 K | 166.2 ± 9.3
313.15 K | 122.1 ± 6.1
318.15 K | 100.3 ± 4.6
323.15 K | 80.1 ± 3.5

CCOC(=O)C(C)Br (stereo unspecified)
Settings | viscosity [mPa·s]
303.15 K, 101 kPa | 1.493 ± 0.0094

CC[n+]1ccn(C)c1.O=C([O-])C(F)(F)F
101 kPa
Settings | viscosity [mPa·s]
293.15 K | 39.5 ± 0.9
298.15 K | 32.9 ± 0.7
303.15 K | 27.5 ± 0.6
313.15 K | 19.9 ± 0.5

CN(C)N
Settings | viscosity [mPa·s]
293.15 K, 101.3 kPa | 0.55 ± 0.02

COC(C)=O
Settings | viscosity
293.15 K, 101 kPa | 0.411 ± 0.011 mPa·s
303.15 K, 101.3 kPa | 0.3448 ± 0.0047 mPa·s and 0.3442 ± 0.0032 mPa·s and 0.3448 ± 0.0027 mPa·s
313.15 K, 101 kPa | 0.321 ± 0.007 mPa·s and 0.3524 ± 0.0059 mPa·s and 0.331 ± 0.02 mPa·s
313.15 K, 101.33 kPa | 0.331 ± 0.005 mPa·s
318.15 K, 101 kPa | 0.299 ± 0.006 mPa·s and 0.313 ± 0.0085 mPa·s

COCCOC
Settings | viscosity
298 K, 101.3 kPa | 0.432 ± 0.004 mPa·s
298.15 K, 101 kPa | 0.45 ± 0.048 mPa·s
298.15 K, 101.33 kPa | 0.4236 ± 0.025 mPa·s
301.15 K, 100 kPa | 0.6 ± 0.1 mPa·s and 0.7 ± 0.1 mPa·s
308.15 K, 101 kPa | 0.445 ± 0.048 mPa·s and 0.3812 ± 0.0042 mPa·s
308.15 K, 101.33 kPa | 0.3847 ± 0.023 mPa·s
313.15 K, 101 kPa | 0.3628 ± 0.004 mPa·s
318.15 K, 101 kPa | 0.3444 ± 0.0039 mPa·s
318.15 K, 101.33 kPa | 0.3496 ± 0.021 mPa·s
323.15 K, 101 kPa | 0.3284 ± 0.0037 mPa·s

COc1ccccc1N
viscosity
Settings | 298.15 K | 303.15 K | 308.15 K | 313.15 K | 318.15 K
100 kPa | 5.374 ± 0.11 mPa·s | – | – | – | –
101 kPa | – | 4.924 ± 0.089 mPa·s and 4.922 ± 0.11 mPa·s and 4.922 ± 0.21 mPa·s | 4.512 ± 0.1 mPa·s and 4.512 ± 0.2 mPa·s | 4.185 ± 0.093 mPa·s and 4.185 ± 0.18 mPa·s | 3.883 ± 0.087 mPa·s and 3.883 ± 0.17 mPa·s

C[N+](C)(CCCS(=O)(=O)O)C1CCCCC1.Cc1ccc(S(=O)(=O)[O-])cc1
101 kPa
Settings | viscosity [mPa·s]
303.15 K | 113700
308.15 K | 56930
313.15 K | 32650
318.15 K | 17830
323.15 K | 10190

Cc1ccc(C)c(C)c1
102 kPa
Settings | viscosity [mPa·s]
293.15 K | 0.84 ± 0.022
303.15 K | 0.731 ± 0.021
313.15 K | 0.64 ± 0.021
323.15 K | 0.567 ± 0.021

OCC1CCCCC1
Settings | viscosity [mPa·s]
293.15 K, 100 kPa | 37.75 ± 0.59

OCCCOCCCO
101 kPa
Settings | viscosity [mPa·s]
293.15 K | 115 ± 2
298.15 K | 78.2 ± 0.7
303.15 K | 51.1 ± 0.3
308.15 K | 37.2 ± 0.3
313.15 K | 27.4 ± 0.2
318.15 K | 20.8 ± 0.1

OCCNCCO
viscosity
Settings | 293.15 K | 298.15 K | 303.15 K | 308.15 K | 313.15 K | 318.15 K | 323.15 K
101 kPa | 841.5 ± 57 mPa·s and 742 ± 44 mPa·s | – | 365.7 ± 23 mPa·s and 379.3 ± 14 mPa·s | 263.1 ± 8.5 mPa·s | 179.8 ± 10 mPa·s and 186.4 ± 5 mPa·s | 134.5 ± 2.9 mPa·s | 89.7 ± 5 mPa·s and 111 ± 3.1 mPa·s and 98.85 ± 1.9 mPa·s
101.33 kPa | – | 566.3 ± 46 mPa·s | – | – | – | – | –

c1ccc2ncccc2c1
Settings | viscosity
293.15 K, 101 kPa | 3.64 ± 0.04 mPa·s
293.25 K, 101 kPa | 3.635 ± 0.037 mPa·s
298 K, 101.3 kPa | 3.475 ± 0.028 mPa·s
298.15 K, 101.33 kPa | 3.36 ± 0.04 mPa·s
303 K, 101.3 kPa | 3.092 ± 0.026 mPa·s
303.05 K, 101 kPa | 2.943 ± 0.029 mPa·s
303.15 K, 101 kPa | 2.94 ± 0.03 mPa·s and 3.1 ± 0.08 mPa·s
303.15 K, 101.33 kPa | 3.01 ± 0.04 mPa·s
308 K, 101.3 kPa | 2.777 ± 0.023 mPa·s
308.15 K, 101.33 kPa | 2.68 ± 0.03 mPa·s
313 K, 101.3 kPa | 2.489 ± 0.021 mPa·s
313.15 K, 101 kPa | 2.385 ± 0.023 mPa·s and 2.384 ± 0.023 mPa·s
313.15 K, 101.33 kPa | 2.43 ± 0.03 mPa·s
318 K, 101.3 kPa | 2.243 ± 0.02 mPa·s and 2.242 ± 0.02 mPa·s
318.15 K, 101.33 kPa | 2.21 ± 0.03 mPa·s
323.15 K, 101.33 kPa | 2.03 ± 0.03 mPa·s
